The structures appear in SMILES notation. In brackets after ≈: the same amount, converted by molar mass. Read-outs that look alike come from different tables or passages of the source.

The nature of data set [1]: Hepatocyte clearance assay, rat. Type of data set: in vitro ADME. Conditions: cryopreserved primary rat hepatocytes, average value from two experiments, read-out: Rat heps Clint. Here is the method: (§1) In vitro clearance studies were performed in primary rat and human hepatocytes (BiolVT). Vials of cryopreserved rat or human hepatocytes were thawed in a 37° C. water bath for 2 min. Cells were transferred into thawing medium (Williams' Medium E containing 30% Percoll, 1×GlutaMAX-1, 15 mM HEPES, 5% fetal bovine serum (FBS), 4 μg/ml insulin, 1 μM dexamethasone), centrifuged at 100 g for 10 min then resuspended in culture medium (Leibovitz's L-15 Medium) at a concentration of 0.5×10^6 viable cells/mL (number of viable cells assessed using AO/PI staining). Hepatocytes (198 μL) were transferred into wells of a 96-well non-coated plate and placed in a 37° C. incubator for 10 min. Test compound solutions were prepared from 10 mM stocks in DMSO, diluted to 100 μM in 50% (v/v in water) acetonitrile. Test compound samples (2 μl) were added to each well of hepatocytes and incubated at 37° C. Samples (25 μl) were collected at t=0, 15, 30, […] and 120 min, mixed with 6 volumes (150 μl) of acetonitrile containing internal standard (100 nM alprazolam, 200 nM caffeine and 100 nM tolbutamide), vortexed for 5 min and centrifuged for 45 min at 3220 g. An aliquot of supernatant (100 μL) was diluted with 100 μL ultra-pure water, and the mixture was used for LC/MS/MS analysis. All incubations were performed in duplicate. Peak areas were determined from extracted ion chromatograms. The slope value, k, was determined by linear regression of the natural logarithm of the remaining percentage of the parent drug vs. incubation time curve. The in vitro half-life (in vitro t½) was determined from the slope value: in vitro t½=0.693/k. Conversion of the in vitro t½ (in min) into the in vitro intrinsic clearance (in vitro CLint, in μL/min/1×10^6 cells) was done using the following equation (mean of duplicate determinations):
(§2) [formula] • V=incubation volume (0.2 mL) • N=number of hepatocytes per well (0.1×10^6 cells).

A short description of data set [2]: PBS and FaSSIF solubility. The format is physicochemical. Conditions: kinetic from dmso stock. Here is the method: Test compounds were prepared as 10 mM stocks in DMSO and 15 μl samples transferred in duplicate into 1.5 mL glass flat bottom vials (BioTech Solutions). Fasted state simulated intestinal fluid (FaSSIF) or PBS (pH 7.4) was added to each vial to final volume of 500 μl. One PTFE encapsulated stir stick (V&P Scientific) was placed in each vial before sealing with PTFE/SIL plugs (BioTech Solutions). Vials were shaken at 1100 rpm for 2 hr at 25° C. Samples were then filtered through MultiScreen Solvinert filter plates (Millipore) via vacuum filtration. Aliquots of filtrate (5 μl) plus 5 μl DMSO were diluted in 490 μl 50% acetonitrile in water containing internal standard. The filtrate was analysed and quantified against a standard of known concentration using LC-MS/MS. Solubility values of the test compound and control compound were calculated as follows: […]

The nature of data set [3]: Hepatocyte clearance assay, human. Type of data set: in vitro ADME. The following applies: cryopreserved primary human hepatocytes, average value from two experiments, read-out: Human heps Clint. Here is the method:
as §1, §2

Data set [4] relates to mPTP. Briefly: mPTP activity (Ca2+ retention) assay in isolated rat liver mitochondria. The following applies: isolated rat liver mitochondria; average value from multiple experiments (n ≥ 2). The format is biochemical. An outline of the steps: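 Freshly isolated female Sprague Dawley rat liver mitochondria were energised with succinate and rotenone in pH 7.4 buffer with Fluo5N, then pre-incubated 10 min at RT with compound (30 μM to 1 nM final) before a 75 μM CaCl2 bolus. The IC50 used 10-min fluorescence, normalised to DMSO and 5 μM cyclosporin A.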

Data set [5] addresses CYP2D6 (Homo sapiens (Human), UniProt P10635). In words: Cytochrome P450 CYP2D6 inhibition in human liver microsomes. Type of data set: in vitro ADME. Conditions: probe dextromethorphan 2 µM (dextrorphan formation); 1 uM test compound, human liver microsomes; average value from two experiments; negative values = no effective inhibition. The method in brief:
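Human liver microsomes (0.2 mg/mL) with 2 μM dextromethorphan in 100 mM PBS, test compound at 1 μM or 0.1-30 μM, 15 min preincubation then NADPH-started reaction for 20 min at 37° C, in duplicate. Dextrorphan formation by UPLC-MS/MS; IC50 from % decrease versus uninhibited control.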

Data set [6] deals with mPTP. Briefly: mPTP activity assay in isolated rat brain mitochondria. Type of data set: biochemical. Conditions: isolated rat brain mitochondria. As for the experimental part:
mPTP activity was measured in brain mitochondria freshly isolated from female Sprague Dawley (250 to 300 gram) rats. Anaesthetised rats were perfused in-situ with ˜40 ml cold Dulbecco's Phosphate Buffered Saline (DPBS), then brains dissected and transferred into 30 ml Isolation Buffer (225 mM mannitol, 75 mM sucrose, 1 mM EGTA, adjusted to pH 7.4 with 1 M NaOH). The brain was minced using tweezers and a scalpel into ˜5 mm pieces then transferred into a 50 ml Potterton Dounce homogenization tube on ice containing 10 ml ice-cold isolation buffer (as above with addition of Complete Protease inhibitor; 1 tablet per 50 ml buffer).
Homogenisation was carried out using a […] pestle at 1800 rpm. The slurry was centrifuged at 2000 g for 10 min at 4° C., then the supernatant centrifuged at 12,000 g for 9 min. The pellet was resuspended with a dounce homogeniser in isolation buffer as above but with the addition of 0.02% digitonin, centrifuged at 12,000 g for 11 min and finally resuspended in 5 ml modified isolation buffer (as above but with EGTA reduced to 0.1 mM).
Test compounds were prepared in 384 well polypropylene assay plates as described above for the liver mitochondria assay. A stock mitochondria/Fluo5N assay solution was prepared in 5.6 ml assay buffer (120 mM mannitol, 40 mM MOPS, 5 mM KH2PO4, 60 mM KCl, 10 mM pyruvate, 2 mM malate, 2 mM MgCl2, 20 μM ADP, 1.26 μM oligomycin A, adjusted to pH 7.4) supplemented with Fluo5N pentapotassium salt (2 μM) and 1 ml mitochondria suspension, then transferred (15 μl) into the assay plate containing test compounds and incubated for 10 min at RT. Assay plates were then transferred to a FLIPR Tetra plate reader (Molecular Devices). Dye fluorescence was then measured every 3 sec for a total of 10 min. After 12 sec, a 2.5 μl bolus of Ca2+ (75 μM) was added from a source plate containing 675 μM CaCl2) in FLIPR assay buffer. IC50 values for test compounds were calculated using the fluorescence value collected at the 10 min timepoint with % inhibition calculated using the DMSO control and cyclosporin A values at […].

Setting [7] is: fasted state simulated intestinal fluid (FaSSIF), fassif, Fasted state simulated intestinal fluid, 2 hr at 25° C., read-out: Solubility FaSSIF.

CYP2D6, sequence (P10635 whole entry): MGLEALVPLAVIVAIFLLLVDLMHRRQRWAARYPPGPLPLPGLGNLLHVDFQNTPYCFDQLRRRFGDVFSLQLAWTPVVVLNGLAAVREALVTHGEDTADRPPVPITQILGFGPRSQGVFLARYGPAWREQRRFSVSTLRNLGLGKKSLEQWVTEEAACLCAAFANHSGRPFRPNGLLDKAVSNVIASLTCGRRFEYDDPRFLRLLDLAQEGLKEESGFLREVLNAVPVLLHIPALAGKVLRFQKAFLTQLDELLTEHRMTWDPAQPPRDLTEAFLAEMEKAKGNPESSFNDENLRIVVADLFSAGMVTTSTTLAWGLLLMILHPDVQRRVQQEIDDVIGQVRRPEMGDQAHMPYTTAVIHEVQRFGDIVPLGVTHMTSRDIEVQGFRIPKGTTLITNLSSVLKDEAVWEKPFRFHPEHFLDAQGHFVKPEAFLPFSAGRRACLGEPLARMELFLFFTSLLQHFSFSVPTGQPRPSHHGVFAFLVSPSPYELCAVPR

As for `COCc1c(F)cccc1NC(=O)/C=C/c1ccc2c(C)n[nH]c2c1` [Example 50, (E)-N-(3-fluoro-2-(methoxymethyl)phenyl)-3-(3-methyl-1H-indazol-6-yl)acrylamide], the hepatocyte CLint at 1 µM in data set [1] was 47.8 µL/min/1e6 cells; in data set [3] it was 15.6 µL/min/1e6 cells. Further, the solubility at 2 h in data set [2] (setting [7]) is 23.7 µM (≈ 8.04 µg/mL). In data set [4], the “mPTP Rat liver pIC50” value is given as 7.3. For the same compound, the inhibition at 20 min, 1 µM in data set [5] came out at 1.3%.

For `Cc1n[nH]c2cc(/C=C/C(=O)N[C@H]3c4ccccc4OC[C@@H]3C)ccc12` [Example 65c, (E)-3-(3-methyl-1H-indazol-6-yl)-N-((3R,4R)-3-methylchroman-4-yl)acrylamide], the “mPTP Rat brain pIC50” value in data set [6] is given as 7.8. The “mPTP Rat liver pIC50” value in data set [4] is recorded as 7.7.

For `CO[C@H]1Cc2ccccc2[C@@H]1NC(=O)/C=C/c1ccc2c(C3CC3)n[nH]c2c1` [Example 70, (E)-3-(3-cyclopropyl-1H-indazol-6-yl)-N-((1S,2S)-2-methoxy-2,3-dihydro-1H-inden-1-yl)acrylamide], the values for the hepatocyte CLint at 1 µM in data set [1] and in data set [3] were 70.1 µL/min/1e6 cells and 24.6 µL/min/1e6 cells, respectively. For the same compound, the solubility at 2 h in data set [2] (setting [7]) was 18.4 µM (≈ 6.87 µg/mL). For the same compound, the “mPTP Rat liver pIC50” value in data set [4] is on record as 7.5. The same compound had an inhibition at 20 min, 1 µM in data set [5] of 7.5%.

On to `COc1n[nH]c2cc(/C=C/C(=O)N[C@H]3c4ccccc4C[C@@H]3OC)ccc12` [Example 71, (E)-3-(3-methoxy-1H-indazol-6-yl)-N-((1S,2S)-2-methoxy-2,3-dihydro-1H inden-1-yl)acrylamide], for which the hepatocyte CLint at 1 µM in data set [1] amounted to 72 µL/min/1e6 cells; in data set [3] it was 8.9 µL/min/1e6 cells. Besides, in data set [2] (setting [7]), the solubility at 2 h is 19.9 µM (≈ 7.25 µg/mL). The “mPTP Rat liver pIC50” value in data set [4] is 7.0. Moreover, in data set [5], the inhibition at 20 min, 1 µM was found to be 7.4%.

Consider `CO[C@H]1Cc2ccccc2[C@@H]1NC(=O)/C=C/c1ccc2c(C#N)n[nH]c2c1` [Example 74, (E)-3-(3-cyano-1H-indazol-6-yl)-N-((1S,2S)-2-methoxy-2,3-dihydro-1H-inden-1-yl)acrylamide], for which the solubility at 2 h in data set [2] (aqueous buffer, PBS pH 7.4, 2 hr at 25° C., read-out: Solubility PBS (pH 7.4)) worked out at 1.2 µM (≈ 0.43 µg/mL). For the same compound, the “mPTP Rat brain pIC50” value in data set [6] worked out at 8.0. Further, the “mPTP Rat liver pIC50” value in data set [4] amounted to 8.0. Moreover, the inhibition at 20 min, 1 µM in data set [5] stood at 7.5%.

Take `COc1cc(C)c(NC(=O)/C=C/c2ccc3c(C)n[nH]c3c2)c(C)n1` [Example 91, (2E)-N-(6-methoxy-2,4-dimethylpyridin-3-yl)-3-(3-methyl-1H-indazol-6-yl)prop-2-enamide]: the solubility at 2 h in data set [2] (setting [7]) is 86 µM (≈ 28.9 µg/mL). The “mPTP Rat brain pIC50” value in data set [6] came to 7.2. In addition, the “mPTP Rat liver pIC50” value in data set [4] came to 6.2.

Turning to `COc1cc(C)c(NC(=O)/C=C/c2ccc3c(F)n[nH]c3c2)c(C)n1` [Example 93, (2E)-3-(3-fluoro-1H-indazol-6-yl)-N-(6-methoxy-2,4-dimethylpyridin-3-yl) prop-2-enamide], the solubility at 2 h in data set [2] (setting [7]) is 151 µM (≈ 51.4 µg/mL). Also, in data set [6], the “mPTP Rat brain pIC50” value turned out to be 6.8. In addition, the “mPTP Rat liver pIC50” value in data set [4] is recorded as 7.6.

As to `COc1cc(C)c(NC(=O)/C=C/c2ccc3c(C#N)n[nH]c3c2)c(C)n1` [Example 94, (2E)-3-(3-cyano-1H-indazol-6-yl)-N-(6-methoxy-2,4-dimethylpyridin-3-yl)prop-2-enamide], the solubility at 2 h in data set [2] (setting [7]) is 43 µM (≈ 14.9 µg/mL). Moreover, the “mPTP Rat brain pIC50” value in data set [6] amounted to 7.4. For the same compound, the “mPTP Rat liver pIC50” value in data set [4] is on record as 7.5.

As to `COc1cc(C)c(NC(=O)/C=C/c2cc3[nH]nc(F)c3cc2F)c(C)n1` [Example 97, (2E)-3-(3,5-difluoro-1H-indazol-6-yl)-N-(6-methoxy-2,4-dimethylpyridin-3-yl)prop-2-enamide], the solubility at 2 h in data set [2] (setting [7]) is 35 µM (≈ 12.5 µg/mL). Also, the “mPTP Rat brain pIC50” value in data set [6] turned out to be 7.5. The “mPTP Rat liver pIC50” value in data set [4] is 7.5.

Regarding `Cc1ncc(F)c(C)c1NC(=O)/C=C/c1cc2[nH]nc(C)c2cc1F` [Example 107, (2E)-N-(5-fluoro-2,4-dimethylpyridin-3-yl)-3-(5-fluoro-3-methyl-1H-indazol-6-yl)prop-2-enamide], the “mPTP Rat brain pIC50” value in data set [6] stood at 8.0. For the same compound, the “mPTP Rat liver pIC50” value in data set [4] was 8.1.

Turning to `Cc1ncc(F)c(C)c1NC(=O)/C=C/c1ccc2c(F)n[nH]c2c1` [Example 108, (2E)-3-(3-fluoro-1H-indazol-6-yl)-N-(5-fluoro-2,4-dimethylpyridin-3-yl)prop-2-enamide], in data set [6], the “mPTP Rat brain pIC50” value came out at 7.6. Further, the “mPTP Rat liver pIC50” value in data set [4] stood at 7.8.

Regarding `Cc1ncc(F)c(C)c1NC(=O)/C=C/c1cc2[nH]nc(F)c2cc1F` [Example 111, (2E)-3-(3,5-difluoro-1H-indazol-6-yl)-N-(5-fluoro-2,4-dimethylpyridin-3-yl)prop-2-enamide], in data set [6], the “mPTP Rat brain pIC50” value was found to be 8.1. Also, the “mPTP Rat liver pIC50” value in data set [4] was determined as 8.1.

`Cc1ncc(F)c(C)c1NC(=O)/C=C/c1ccc2c(Cl)n[nH]c2c1` [Example 112, (2E)-3-(3-chloro-1H-indazol-6-yl)-N-(5-fluoro-2,4-dimethylpyridin-3-yl)prop-2-enamide]: the “mPTP Rat brain pIC50” value in data set [6] amounted to 8.2. Besides, the “mPTP Rat liver pIC50” value in data set [4] is given as 8.2.

With `Cc1ncccc1NC(=O)/C=C/c1ccc2c(C)n[nH]c2c1` [Example 115, (2E)-3-(3-methyl-1H-indazol-6-yl)-N-(2-methylpyridin-3-yl)prop-2-enamide], the “mPTP Rat brain pIC50” value in data set [6] is listed as 5.7. Also, the “mPTP Rat liver pIC50” value in data set [4] is 6.2.

In the case of `Cc1ccnc(C)c1NC(=O)/C=C/c1ccc2c(C)n[nH]c2c1` [Example 116, (2E)-N-(2,4-dimethylpyridin-3-yl)-3-(3-methyl-1H-indazol-6-yl)prop-2-enamide], the “mPTP Rat brain pIC50” value in data set [6] was determined as 6.2. In addition, the “mPTP Rat liver pIC50” value in data set [4] turned out to be 6.5.
